Literature values, collected in US20260165989A1 (Société des Produits Nestlé S.A., priority 2024, published 2026).

Conditions: counter ion (base) for salt screening

pKa(s)*: 12.2
SMILES: C[N+](C)(C)CC(=O)O [Betaine]
